pIC50: −log10 of the molar value.
What was measured:
Format in all cases: biochemical
B-Raf = target: T1, B-Raf (Homo sapiens, UniProt P15056); assay: AlphaScreen kinase assay, B-Raf; conditions: read-out: IC50, activity toward kinase B-Raf
T1 construct: purchased Upstate Biotechnology

Ret = target: T2, Ret (Homo sapiens, UniProt P07949); assay: AlphaScreen kinase assay, Ret; conditions: read-out: IC50, activity toward kinase Ret
T2 construct: P1378.pET-SF BI-PTP RET H661-R1012 HIS; made in house
T2 sequence (P07949 with tags, fused parts or gaps): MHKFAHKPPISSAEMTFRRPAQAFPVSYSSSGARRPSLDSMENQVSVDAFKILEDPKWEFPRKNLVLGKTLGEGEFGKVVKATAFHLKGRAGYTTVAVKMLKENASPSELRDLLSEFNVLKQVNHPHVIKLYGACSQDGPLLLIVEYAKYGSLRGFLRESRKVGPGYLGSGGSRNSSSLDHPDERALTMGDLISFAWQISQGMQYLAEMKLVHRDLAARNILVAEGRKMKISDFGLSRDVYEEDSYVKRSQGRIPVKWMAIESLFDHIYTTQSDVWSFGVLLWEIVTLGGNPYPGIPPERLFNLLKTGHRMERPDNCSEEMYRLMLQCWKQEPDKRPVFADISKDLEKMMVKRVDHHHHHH

FGFR1 = target: T3, FGFR1 (Homo sapiens, UniProt P11362, C488A/C584S); assay: AlphaScreen kinase assay, FGFR1; conditions: read-out: IC50, activity toward kinase FGFR
T3 construct: P1351.pET N6 BI-PTP FGFR A458-E765-X C488A, C584S; made in house; host or cells: E. coli (PTP1B co-expressed)
T3 sequence (P11362 458-765 C488A/C584S): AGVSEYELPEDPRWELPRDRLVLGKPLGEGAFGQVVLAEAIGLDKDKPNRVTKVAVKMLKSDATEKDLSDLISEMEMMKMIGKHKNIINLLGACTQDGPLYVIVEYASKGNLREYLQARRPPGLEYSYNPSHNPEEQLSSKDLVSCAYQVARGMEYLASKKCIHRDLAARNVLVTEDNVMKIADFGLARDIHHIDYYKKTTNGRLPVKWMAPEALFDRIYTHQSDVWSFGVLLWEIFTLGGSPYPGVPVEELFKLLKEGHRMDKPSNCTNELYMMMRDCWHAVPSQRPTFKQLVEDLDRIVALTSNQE

Btk = target: T4, Btk (Homo sapiens, UniProt Q06187); assay: Z'-Lyte FRET kinase assay (Invitrogen), Btk; conditions: read-out: IC50, activity toward kinase Btk
T4 construct: purchased Invitrogen (assay run by Invitrogen)
T4 sequence (Q06187 whole entry): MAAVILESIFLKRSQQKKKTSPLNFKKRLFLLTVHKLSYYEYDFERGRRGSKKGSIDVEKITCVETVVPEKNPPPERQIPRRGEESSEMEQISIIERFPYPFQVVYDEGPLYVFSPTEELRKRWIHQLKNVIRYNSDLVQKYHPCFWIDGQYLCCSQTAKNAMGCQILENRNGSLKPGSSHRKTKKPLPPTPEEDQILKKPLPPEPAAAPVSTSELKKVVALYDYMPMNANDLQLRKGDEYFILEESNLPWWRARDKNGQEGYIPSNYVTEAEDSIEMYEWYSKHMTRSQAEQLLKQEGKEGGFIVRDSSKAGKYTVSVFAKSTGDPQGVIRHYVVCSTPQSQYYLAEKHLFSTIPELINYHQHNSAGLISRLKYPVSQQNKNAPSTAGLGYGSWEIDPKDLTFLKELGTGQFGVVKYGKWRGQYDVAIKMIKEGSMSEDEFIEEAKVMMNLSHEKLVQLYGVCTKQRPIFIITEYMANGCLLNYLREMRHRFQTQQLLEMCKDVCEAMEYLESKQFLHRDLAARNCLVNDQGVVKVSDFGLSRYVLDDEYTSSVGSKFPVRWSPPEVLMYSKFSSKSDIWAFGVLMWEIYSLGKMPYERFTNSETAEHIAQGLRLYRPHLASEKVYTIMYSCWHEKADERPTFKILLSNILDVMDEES

Fms = target: T5, Fms (Homo sapiens, UniProt P07333); assay: AlphaScreen kinase assay, Fms; conditions: read-out: IC50, activity toward kinase Fms
T5 construct: purchased Upstate Biotechnology
T5 sequence (P07333 20-972): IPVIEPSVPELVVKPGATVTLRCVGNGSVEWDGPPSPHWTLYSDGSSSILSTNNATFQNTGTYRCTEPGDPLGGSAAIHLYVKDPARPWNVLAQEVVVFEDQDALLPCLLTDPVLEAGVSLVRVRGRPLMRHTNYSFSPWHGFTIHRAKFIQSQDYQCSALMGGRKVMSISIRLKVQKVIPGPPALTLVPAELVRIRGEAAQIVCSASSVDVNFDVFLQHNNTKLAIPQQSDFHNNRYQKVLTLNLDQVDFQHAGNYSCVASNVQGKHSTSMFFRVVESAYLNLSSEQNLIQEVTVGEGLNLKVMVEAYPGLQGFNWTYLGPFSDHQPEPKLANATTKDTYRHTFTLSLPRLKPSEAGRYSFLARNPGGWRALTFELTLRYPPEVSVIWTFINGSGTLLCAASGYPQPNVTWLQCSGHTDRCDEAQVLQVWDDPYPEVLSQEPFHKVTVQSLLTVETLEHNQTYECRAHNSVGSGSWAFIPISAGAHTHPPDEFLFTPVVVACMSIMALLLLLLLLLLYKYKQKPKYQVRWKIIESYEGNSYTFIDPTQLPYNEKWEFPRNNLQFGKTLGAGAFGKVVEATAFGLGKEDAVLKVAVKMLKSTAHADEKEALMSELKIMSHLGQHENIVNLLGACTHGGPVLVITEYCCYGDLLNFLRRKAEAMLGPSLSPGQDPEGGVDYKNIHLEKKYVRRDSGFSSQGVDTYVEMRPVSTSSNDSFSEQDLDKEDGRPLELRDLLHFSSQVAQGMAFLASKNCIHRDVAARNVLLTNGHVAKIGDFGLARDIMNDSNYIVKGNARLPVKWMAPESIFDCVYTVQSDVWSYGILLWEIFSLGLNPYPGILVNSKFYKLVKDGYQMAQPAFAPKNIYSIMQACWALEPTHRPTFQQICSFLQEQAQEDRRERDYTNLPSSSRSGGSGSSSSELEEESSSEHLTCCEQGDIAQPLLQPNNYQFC

Measured: pIC50

T1 sequence (P15056 whole entry): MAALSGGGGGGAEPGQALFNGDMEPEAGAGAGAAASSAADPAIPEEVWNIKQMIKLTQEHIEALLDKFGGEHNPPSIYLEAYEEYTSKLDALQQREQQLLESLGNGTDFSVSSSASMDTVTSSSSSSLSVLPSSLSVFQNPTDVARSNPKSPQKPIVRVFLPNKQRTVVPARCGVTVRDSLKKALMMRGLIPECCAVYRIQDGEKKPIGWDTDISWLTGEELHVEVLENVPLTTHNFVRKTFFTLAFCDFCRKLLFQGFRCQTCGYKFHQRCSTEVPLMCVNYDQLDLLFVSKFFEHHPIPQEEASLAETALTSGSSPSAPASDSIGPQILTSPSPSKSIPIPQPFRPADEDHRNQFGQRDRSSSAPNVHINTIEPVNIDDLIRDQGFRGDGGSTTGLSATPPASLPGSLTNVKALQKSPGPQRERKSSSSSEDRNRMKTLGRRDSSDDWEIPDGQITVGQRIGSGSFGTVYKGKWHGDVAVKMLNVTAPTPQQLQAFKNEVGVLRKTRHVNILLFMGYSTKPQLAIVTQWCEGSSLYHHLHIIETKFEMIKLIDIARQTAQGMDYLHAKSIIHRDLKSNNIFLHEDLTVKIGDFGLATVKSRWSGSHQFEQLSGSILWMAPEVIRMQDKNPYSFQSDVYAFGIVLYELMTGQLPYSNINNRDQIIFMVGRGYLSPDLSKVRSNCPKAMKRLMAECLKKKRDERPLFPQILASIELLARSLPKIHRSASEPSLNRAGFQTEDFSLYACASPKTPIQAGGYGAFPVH

O=C(c1ccc(O)cc1)c1c[nH]c2ncc(-c3cccs3)cc12 [Compound P-0024, (4-Hydroxy-phenyl)-(5-thiophen-2-yl-1H-pyrrolo[2,3-b]pyridin-3-yl)-methanone]
not listed: Fms
≥ 5.00: all other assays above

O=C(c1cccc(O)c1)c1c[nH]c2ncc(-c3cccs3)cc12 [Compound P-0196]
not listed: Btk
≥ 5.00: all other assays above

Cc1c(NS(C)(=O)=O)cccc1C(=O)c1c[nH]c2ncc(-c3ccccc3)cc12 [Compound P-0082, N-[2-Methyl-3-(5-phenyl-1H-pyrrolo[2,3-b]pyridine-3-carbonyl)-phenyl]-methanesulfonamide]
≥ 5.00: all assays above

Oc1ccc(F)c(Cc2c[nH]c3ncc(Br)cc23)c1F [Compound P-0122, 3-(5-Bromo-1H-pyrrolo[2,3-b]pyridin-3-ylmethyl)-2,4-difluoro-phenol]
≥ 5.00: B-Raf | Ret

CN(C)S(=O)(=O)Nc1ccc(F)c(Cc2c[nH]c3ncc(-c4cccnc4)cc23)c1F [Compound P-0166]
not listed: Ret
≥ 5.00: all other assays above

CS(=O)(=O)c1cccc(-c2cnc3[nH]cc(C(=O)c4cc(O)ccc4F)c3c2)c1 [Compound P-0008, (2-Fluoro-5-hydroxy-phenyl)-[5-(3-methanesulfonyl-phenyl)-1H-pyrrolo[2,3-b]pyridin-3-yl]-methanone]
not listed: Btk
≥ 5.00: all other assays above

OCCOc1ccc(F)c(Cc2c[nH]c3ncc(-c4cccnc4)cc23)c1F [Compound P-1394, 2-[2,4-Difluoro-3-(5-pyridin-3-yl-1H-pyrrolo[2,3-b]pyridin-3-ylmethyl)-phenoxy]-ethanol]
≥ 5.00: Fms | FGFR1

CCCS(=O)(=O)Nc1ccc(F)c(C(=O)c2c[nH]c3ncc(OC)cc23)c1F [Compound P-0806, Propane-1-sulfonic acid [2,4-difluoro-3-(5-methoxy-1H-pyrrolo[2,3-b]pyridine-3-carbonyl)-phenyl]-amide]
not listed: Ret
≥ 5.00: all other assays above

CS(=O)(=O)c1cccc(-c2cnc3[nH]cc(C(=O)c4cccc(O)c4F)c3c2)c1 [Compound P-0026, (2-Fluoro-3-hydroxy-phenyl)-[5-(3-methanesulfonylphenyl)1H-pyrrolo[2,3-b]pyridin-3-yl]-methanone]
≥ 5.00: all assays above

O=C(Nc1ccc(Cc2c[nH]c3ncccc23)cc1)Nc1cccc(C(F)(F)F)c1 [Compound P-0262, 1-[4-(1H-Pyrrolo[2,3-b]pyridin-3-ylmethyl)-phenyl]-3-(3-trifluoromethyl-phenyl)-urea]
not listed: Btk
≥ 5.00: all other assays above

CS(=O)(=O)Nc1cccc(-c2ccnc3[nH]cc(C(=O)c4cc(F)ccc4F)c23)c1 [Compound P-0060]
≥ 5.00: B-Raf | Ret | Btk

CCCC(=O)Nc1ccc(F)c(Cc2c[nH]c3ncc(-c4cccnc4)cc23)c1F [Compound P-1280]
≥ 5.00: Fms | B-Raf | FGFR1

O=C(c1cc(F)ccc1F)c1c[nH]c2nccc(-c3cccnc3)c12 [Compound P-0063]
≥ 5.00: Ret | Btk

COc1cc(OC)cc(C(=O)c2c[nH]c3ncc(-c4cccc(NS(C)(=O)=O)c4)cc23)c1 [Compound P-1426, N-{3-[3-(3,5-Dimethoxy-benzoyl)-1H-pyrrolo[2,3-b]pyridin-5-yl]-phenyl}-methanesulfonamide]
≥ 5.00: Fms | FGFR1 | Btk

Cc1ccc(S(=O)(=O)NCc2c[nH]c3ncccc23)cc1 [Compound P-0058]
≥ 5.00: Ret | FGFR1

O=C(c1cccc(O)c1F)c1c[nH]c2ncc(-c3cccs3)cc12 [Compound P-0521, (2-fluoro-3-hydroxy-phenyl)-(5-thiophen-2-yl-1H-pyrrolo[2,3-b]pyridin-3-yl)-methanone]
≥ 5.00: B-Raf | Ret | FGFR1

O=C(c1ccccc1F)c1c[nH]c2nccc(-c3ccsc3)c12 [Compound P-0051]
≥ 5.00: Ret | Btk

O=C(c1ccccc1F)c1c[nH]c2ncc(-c3ccsc3)cc12 [Compound P-0134]
not listed: B-Raf
≥ 5.00: all other assays above

NC(=O)c1cccc(-c2ccnc3[nH]cc(C(=O)c4cc(F)ccc4F)c23)c1 [Compound P-0049]
≥ 5.00: Ret | Btk

Nc1cccc(-c2cnc3[nH]cc(C(=O)c4cc(O)ccc4F)c3c2)c1 [Compound P-0002]
not listed: Btk
≥ 5.00: all other assays above

Nc1cccc(-c2ccnc3[nH]cc(C(=O)c4cc(F)ccc4F)c23)c1 [Compound P-0046]
≥ 5.00: Ret | Btk

CCCCNC(=O)Nc1ccc(F)c(C(=O)c2c[nH]c3ncc(-c4cccnc4)cc23)c1F [Compound P-1318, 1-Butyl-3-[2,4-difluoro-3-(5-pyridin-3-yl-1H-pyrrolo[2,3-b]pyridine-3-carbonyl)-phenyl]-urea]
≥ 5.00: Fms | B-Raf | FGFR1

Nc1cccc(-c2cnc3[nH]cc(C(=O)c4cccc(O)c4F)c3c2)c1 [Compound P-0004, [5-(3-amino-phenyl)-1H-pyrrolo[2,3-b]pyridin-3-yl]-(2-fluoro-3-hydroxy-phenyl)methanone]
not listed: Btk
≥ 5.00: all other assays above

OC(c1c(F)ccc(F)c1F)c1c[nH]c2ncc(-c3cccnc3)cc12 (centres unmarked) [Compound P-0101]
≥ 5.00: Fms | Ret | FGFR1

O=C(c1cccc(O)c1)c1c[nH]c2nccc(-c3cc(F)cc(F)c3)c12 [Compound P-0039]
≥ 5.00: Ret | FGFR1

CS(=O)(=O)c1cccc(-c2ccnc3[nH]cc(C(=O)c4cc(F)ccc4F)c23)c1 [Compound P-0171]
not listed: Fms
≥ 5.00: all other assays above

COc1cccc(C(=O)c2c[nH]c3ncc(-c4cccc(NC(C)=O)c4)cc23)c1F [Compound P-1336, N-{3-[3-(2-Fluoro-3-methoxy-benzoyl)-1H-pyrrolo[2,3-b]pyridin-5-yl]-phenyl}-acetamide]
not listed: Ret
≥ 5.00: all other assays above

CCCS(=O)(=O)Nc1ccc(F)c(C(=O)c2c[nH]c3ncc(-c4ccccc4)cc23)c1F [Compound P-0636, Propane-1-sulfonic acid [2,4-difluoro-3-(5-phenyl-1H-pyrrolo[2,3-b]pyridine-3-carbonyl)-phenyl]-amide]
not listed: Btk
≥ 5.00: all other assays above

Reference: patent US8415469B2, “Compounds and methods for kinase modulation, and indications therefor” (Plexxikon Inc., priority 2005, dated 2013)
